Assay results published in ChEMBL document CHEMBL1201862, “PubChem BioAssay data set” (2004).
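Growth conditions: 96-well plates. Treatment: test compound, 48 hours, 5 concentrations. Analysis: linear interpolation between bracketing concentrations; unreached endpoints set to highest concentration. GI50 = concentration required for 50% inhibition of growth.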 Activity calls are given as the source filed them. Rule as the data show it: active = GI50 up to about 1.1 µM and inactive = higher.

Assays:
Assay in all cases: NCI anticancer screen, dose series, 48 h
786-0 = system: 786-0
CCRF-CEM = system: CCRF-CEM
DU-145 = system: DU-145
IGROV-1 = system: IGROV-1
MOLT-4 = system: MOLT-4
NCI-H226 = system: NCI-H226
NCI-H522 = system: NCI-H522
OVCAR-3 = system: OVCAR-3
OVCAR-4 = system: OVCAR-4
OVCAR-8 = system: OVCAR-8
SF-295 = system: SF-295
SF-539 = system: SF-539
SK-MEL-2 = system: SK-MEL-2
SK-MEL-5 = system: SK-MEL-5
SW-620 = system: SW-620
HT-29 = system: HT-29
K562 = system: K562
Malme-3M = system: Malme-3M
OVCAR-5 = system: OVCAR-5
RXF 393 = system: RXF 393

Measured: GI50

COc1cc(C(C)=O)cc(C(=O)N(C(C)C)C(C)C)c1[Si](C)(C)C
inactive: 786-0 > 100 µM | CCRF-CEM > 100 µM | DU-145 > 100 µM | IGROV-1 > 100 µM | MOLT-4 79.6 µM | NCI-H226 > 100 µM | NCI-H522 34.8 µM | OVCAR-3 > 100 µM | OVCAR-4 > 100 µM | OVCAR-8 > 100 µM | SF-295 > 100 µM | SF-539 > 100 µM | SK-MEL-2 > 100 µM | SK-MEL-5 > 100 µM | SW-620 > 100 µM

O=C(O)c1cc(CC2Cc3cc4c(cc3C2=O)CCC4)cc2c1CCC2 (stereo not given)
inactive: 786-0 > 100 µM | CCRF-CEM 59.3 µM | DU-145 > 100 µM | HT-29 > 100 µM | IGROV-1 > 100 µM | K562 40.9 µM | MOLT-4 > 100 µM | Malme-3M > 100 µM | NCI-H226 > 100 µM | NCI-H522 90.2 µM | OVCAR-3 94.4 µM | OVCAR-4 > 100 µM | OVCAR-5 > 100 µM | OVCAR-8 > 100 µM | SF-295 > 100 µM | SF-539 > 100 µM | SK-MEL-2 > 100 µM | SW-620 > 100 µM

CC(C)=CCNc1ncnc2c1ncn2CCC(=O)O
inactive: 786-0 > 100 µM | CCRF-CEM > 100 µM | DU-145 > 100 µM | HT-29 > 100 µM | IGROV-1 > 100 µM | K562 > 100 µM | MOLT-4 > 100 µM | Malme-3M > 100 µM | NCI-H226 > 100 µM | NCI-H522 > 100 µM | OVCAR-3 > 100 µM | OVCAR-4 > 100 µM | OVCAR-5 > 100 µM | OVCAR-8 > 100 µM | RXF 393 > 100 µM | SF-295 > 100 µM | SF-539 > 100 µM | SK-MEL-5 > 100 µM | SW-620 > 100 µM

CC1(c2ccc(F)cc2)CC(c2ccc(F)cc2)=C(C#N)C(=C(C#N)C#N)N1 (stereo not given)
inactive: 786-0 15.3 µM | CCRF-CEM 2.11 µM | DU-145 15.2 µM | HT-29 15.4 µM | IGROV-1 17.1 µM | K562 11 µM | MOLT-4 14.4 µM | Malme-3M 18.7 µM | NCI-H226 21.2 µM | OVCAR-3 5.98 µM | OVCAR-4 13.4 µM | OVCAR-5 19.8 µM | OVCAR-8 20.1 µM | RXF 393 12.8 µM | SF-295 16.9 µM | SF-539 25.7 µM | SK-MEL-2 16 µM | SK-MEL-5 14.1 µM | SW-620 7.57 µM

O=C1/C(=C/c2ccc([N+](=O)[O-])cc2)Oc2cc(O)ccc21
inactive: 786-0 22.2 µM | CCRF-CEM 31 µM | DU-145 33.7 µM | IGROV-1 29.1 µM | K562 17.9 µM | MOLT-4 14.6 µM | NCI-H226 13.2 µM | NCI-H522 24.8 µM | OVCAR-3 27.5 µM | OVCAR-4 39.6 µM | OVCAR-8 29.6 µM | RXF 393 45 µM | SF-295 37.8 µM | SF-539 23.4 µM | SK-MEL-5 21 µM | SW-620 41 µM

CSc1nn(C)cc2nc(C)nc1-2
inactive: 786-0 > 100 µM | CCRF-CEM > 100 µM | DU-145 > 100 µM | HT-29 > 100 µM | IGROV-1 > 100 µM | K562 > 100 µM | MOLT-4 > 100 µM | NCI-H226 > 100 µM | OVCAR-3 > 100 µM | OVCAR-5 > 100 µM | OVCAR-8 > 100 µM | RXF 393 > 100 µM | SF-295 > 100 µM | SF-539 > 100 µM | SK-MEL-2 > 100 µM | SK-MEL-5 > 100 µM | SW-620 > 100 µM

Cc1ccc(N/N=C/C2=CC(C)(C)C(C#N)(C#N)C(O)=C2C#N)cc1
inactive: 786-0 66.4 µM | CCRF-CEM 24.5 µM | DU-145 66.7 µM | HT-29 37.8 µM | IGROV-1 21 µM | K562 21.3 µM | MOLT-4 30.5 µM | Malme-3M > 100 µM | NCI-H226 > 100 µM | NCI-H522 > 100 µM | OVCAR-3 36.6 µM | OVCAR-4 96.8 µM | OVCAR-5 > 100 µM | OVCAR-8 38.4 µM | RXF 393 33.2 µM | SF-295 69.3 µM | SF-539 > 100 µM | SK-MEL-5 40.7 µM | SW-620 24.8 µM

CC1(C)/C(=N\NC(N)=O)C2CCC1C2 (stereo not given)
inactive: 786-0 > 100 µM | CCRF-CEM > 100 µM | DU-145 > 100 µM | HT-29 > 100 µM | IGROV-1 > 100 µM | K562 > 100 µM | MOLT-4 > 100 µM | Malme-3M > 100 µM | NCI-H226 > 100 µM | NCI-H522 > 100 µM | OVCAR-3 > 100 µM | OVCAR-4 > 100 µM | OVCAR-5 > 100 µM | OVCAR-8 > 100 µM | SF-295 > 100 µM | SK-MEL-2 > 100 µM | SK-MEL-5 > 100 µM | SW-620 > 100 µM

COc1cc(C2c3cc4c(cc3C(=O)C3CCC(=O)N32)OCO4)cc(OC)c1O (stereo not given)
inactive: 786-0 > 50 µM | CCRF-CEM > 50 µM | DU-145 > 50 µM | HT-29 > 50 µM | IGROV-1 > 50 µM | K562 > 50 µM | MOLT-4 > 50 µM | NCI-H226 > 50 µM | OVCAR-3 > 50 µM | OVCAR-4 > 50 µM | OVCAR-5 > 50 µM | OVCAR-8 > 50 µM | RXF 393 > 50 µM | SF-295 > 50 µM | SF-539 > 50 µM | SK-MEL-2 > 50 µM | SW-620 > 50 µM

CC1(C)O[C@@H](CP(c2ccc3ccccc3c2)c2ccc3ccccc3c2)[C@H](CP(c2ccc3ccccc3c2)c2ccc3ccccc3c2)O1
inactive: 786-0 > 100 µM | CCRF-CEM > 100 µM | DU-145 > 100 µM | HT-29 85.5 µM | IGROV-1 33 µM | K562 77.1 µM | MOLT-4 78.9 µM | NCI-H226 72.6 µM | NCI-H522 25.5 µM | OVCAR-3 58.9 µM | OVCAR-4 > 100 µM | OVCAR-5 > 100 µM | OVCAR-8 > 100 µM | RXF 393 > 100 µM | SF-295 > 100 µM | SK-MEL-2 > 100 µM | SK-MEL-5 73.5 µM | SW-620 > 100 µM

CCNC(=S)NNC(=O)c1ccccc1Nc1ccccc1C(=O)NNC(=S)NCC
inactive: 786-0 > 100 µM | CCRF-CEM > 100 µM | DU-145 > 100 µM | HT-29 > 100 µM | IGROV-1 > 100 µM | K562 > 100 µM | MOLT-4 > 100 µM | Malme-3M > 100 µM | NCI-H226 > 100 µM | NCI-H522 > 100 µM | OVCAR-3 > 100 µM | OVCAR-4 > 100 µM | OVCAR-5 > 100 µM | OVCAR-8 > 100 µM | SF-295 > 100 µM | SK-MEL-2 > 100 µM | SK-MEL-5 > 100 µM | SW-620 > 100 µM

O=C1CSc2nnc(CCCCCCCCc3nnc4n3NC(=O)CS4)n2N1
inactive: 786-0 32.6 µM | CCRF-CEM 15.3 µM | DU-145 > 100 µM | HT-29 23.1 µM | IGROV-1 42.6 µM | K562 37.8 µM | MOLT-4 31.3 µM | Malme-3M 31.9 µM | NCI-H226 > 100 µM | NCI-H522 26.7 µM | OVCAR-3 > 100 µM | OVCAR-4 > 100 µM | OVCAR-5 > 100 µM | OVCAR-8 27.4 µM | SF-295 85.1 µM | SF-539 48.9 µM | SK-MEL-2 > 100 µM | SW-620 73.6 µM

S=C1NC2=C(COc3ccccc32)C(c2ccc(Cl)cc2)N1 (stereo not given)
inactive: 786-0 19.2 µM | CCRF-CEM 21.3 µM | DU-145 19.9 µM | HT-29 15.5 µM | IGROV-1 16.6 µM | K562 15.6 µM | MOLT-4 12.8 µM | NCI-H226 17.6 µM | OVCAR-3 15.3 µM | OVCAR-5 16.3 µM | OVCAR-8 21.6 µM | RXF 393 15.5 µM | SF-295 13.8 µM | SF-539 16.6 µM | SK-MEL-2 15.3 µM | SK-MEL-5 15 µM | SW-620 28.6 µM

CC(O)CCCCC(O)CCC[C@H](O)[C@H]1CCC([C@H]2CCC([C@@H](O)CCCCCCCCCCCCC3=C[C@H](C)OC3=O)O2)O1 (stereo not given in full)
inactive: 786-0 14.4 µM | CCRF-CEM 9.38 µM | DU-145 12 µM | HT-29 10.7 µM | IGROV-1 10.5 µM | MOLT-4 3.9 µM | NCI-H226 9.59 µM | NCI-H522 7.64 µM | OVCAR-3 9.51 µM | OVCAR-4 12.6 µM | OVCAR-5 11.4 µM | OVCAR-8 10.1 µM | RXF 393 12.1 µM | SF-295 9.29 µM | SF-539 10.4 µM | SK-MEL-2 8.77 µM | SK-MEL-5 7.93 µM | SW-620 12.8 µM

CN(CCc1ccccn1)c1ccc2c(c1)Cc1ccccc1-2
inactive: 786-0 25.8 µM | CCRF-CEM 10.2 µM | DU-145 43.7 µM | HT-29 23.1 µM | IGROV-1 16.1 µM | K562 9.31 µM | MOLT-4 5.42 µM | Malme-3M 9.68 µM | NCI-H226 14.9 µM | NCI-H522 8.69 µM | OVCAR-3 26.1 µM | OVCAR-4 22.5 µM | OVCAR-5 28.4 µM | OVCAR-8 18.4 µM | RXF 393 25.1 µM | SF-295 12.1 µM | SK-MEL-5 12.6 µM | SW-620 48.4 µM
